From patent US20250277028A1, “TARGETING AGENT” (JIKSAK BIOENGINEERING, INC., priority 2022, published 2025)
Non-standard residues stand in square brackets, D forms with d. Residues, ends and D or L forms follow the SMILES beside them. *: point of attachment. Dolaproine = CO[C@@H]([C@@H]1CCCN1)[C@@H](C)C(=O)O; Dil = CC[C@H](C)[C@H](NC)[C@@H](CC(=O)O)OC; X1 = C[C@@H](N*)[C@@H](O)c1ccccc1; NMeV = CN[C@H](C(=O)O)C(C)C

System: human motor neurons
Experiment: Pharmacological effect (axonal amount, Tuj1) of antibody-MMAE conjugate
Type: cell-based
Settings: t-test, significance level p<0.05
Procedure: Experiments were performed using human motor neurons, for which synaptogenesis was induced using microbeads coated with the extracellular domain of LRRTM2. Culture of cells, preparation of LRRTM2 beads and induction of presynapse were performed as described in Example 1.
As the drug, a microtubule polymerization inhibitor monomethylauristatin E (MMAE: Cat. No. #HY-15575; MedChemExpress) was used. As the anti-SYT2 N-terminal antibody and the normal rabbit antibody for control, antibodies used in Example 1 were used. Conjugate of MMAE and the antibody was prepared using MagicLink™ kit (broadpharm). Preparation of conjugate was performed according to the manufacturer's protocols.
After warming the neuronal medium at 37° C. for 30 minutes, 4-aminopyridine (Sigma Aldrich) was added to the medium to have a final concentration of 100 μM and mixed. In addition, conjugate was added to have a final concentration of 1 μg/mL and mixed. […]
The axonal amount was obtained as the sum of the brightness (=(fluorescence intensity per pixel)×(pixel number)) of Tuj1 signals in the obtained fluorescence images. The relative amount of axon was calculated as the value normalized by the results obtained using the conjugate of the control normal rabbit antibody and MMAE set to 100%. […]

Structure (SMILES): CC[C@H](C)[C@@H]([C@@H](CC(=O)N1CCC[C@H]1[C@H](OC)[C@@H](C)C(=O)N[C@H](C)[C@@H](O)c1ccccc1)OC)N(C)C(=O)[C@@H](NC(=O)[C@@H](NC)C(C)C)C(C)C [MMAE, monomethyl auristatin E] (H-[NMeV]V[Dil][Dolaproine]-X1)
- axonal amount, difference from the control antibody group: no significant differences
